We go through two molecules from patent US7015202B2, “Use of glycyrrhizin and its derivatives as MCP-1 production inhibitors” (Minophagen Pharmaceutical Co., Ltd., priority 2002, dated 2006).

For assay [1], the system named is MCP-1. As to the kind of experiment: MCP-1 production by IL-10-stimulated peripheral blood mononuclear cells (ELISA). The format is cell-based, human. Particulars: PBMC from healthy individuals, 20 ng/ml IL-10, compound 100 μg/ml, 24 hours, FIG. 1. Here is the method:
Peripheral blood was collected from health individuals and the fraction containing peripheral blood mononuclear cells (PBMC) was isolated with Ficoll-Hypaque. Monocytes were inoculated into each well of a 96-well flat-bottom microtiter plate at a concentration of 1×10^6 cells/ml. RPMI1640 medium containing 10% FCS and antibiotics (penicillin and streptomycin) was used for culturing. The cells were cultured using an incubator maintained at a temperature of 37° C. and CO2 concentration of 5%. The cells were stimulated by addition of 20 ng/ml of IL-10 (acquired from PeproTech) to each well, and a solution of glycyrrhizin or its derivatives was added at a concentration of 100 μg/ml to all wells except the control well, after which culturing was continued for 24 hours. Following addition of glycyrrhizin, the culture supernatant was recovered and the amount of MCP-1 in the supernatant was quantified by ELISA. A commercially available kit (trade name: Human MCP-1 BD OptEIA ELISA Kit) was used for ELISA.
A general note: An ELISA detects its analyte on a solid surface through an enzyme-linked reagent.

Assay [2] concerns MCP-1. The experiment in a line: MCP-1 production by peripheral blood mononuclear cells from burn patients (ELISA). The format is cell-based, human. Particulars: 100 μg/ml, 24 hours, FIG. 2. The protocol: Experimental Method Peripheral blood was collected from burn patients (third-degree burns covering 45–78% of the body surface), and peripheral blood mononuclear cells were isolated with Ficoll-Hypaque. 1×10^6 cells/ml of the peripheral blood mononuclear cells were stimulated for 24 hours with 100 μg/ml of glycyrrhizin. Furthermore, mononuclear cells from healthy subjects were cultured under the same conditions for the control. The amount of MCP-1 in the culture supernatant was measured with the Human MCP-1 BD OptEIA ELISA Kit.

Assay [3] relates to MCP-1. The experiment in a line: MCP-1 production by peripheral blood mononuclear cells from AIDS patients (ELISA). The assay is classed as cell-based, human. Particulars: 0.1 to 100 μg/ml, 24 hours, FIG. 3. Here is the method: Peripheral blood was collected from AIDS patients and the fraction containing peripheral blood mononuclear cells was isolated using Ficoll-Hypaque. Mononuclear cells were inoculated into each well of a 96-well flat-bottom microtiter plate at a concentration of 1×10^6 cells/ml. The medium was the same as that used in Example 1. The cells were cultured using an incubator maintained at a temperature of 37° C. and CO2 concentration of 5%.
Glycyrrhizin solution was added to each well except the control well at a final concentration of 0.1 to 100 μg/ml followed by culturing for 24 hours.
Following addition of glycyrrhizin, the culture supernatant was recovered and the amount of MCP-1 in the supernatant was quantified by ELISA. A commercially available kit (trade name: Human MCP-1 BD OptEIA ELISA Kit) was used for ELISA.

Another assay concerns HSV-1. As to the kind of experiment: Sensitivity to HSV-1 infection in burn mice. The format is in vivo. The protocol: Experimental Method One day after subjecting normal mice and MCP-1 knockout mice to third degree burns over 15% of their body surface area, the animals were intraperitoneally infected with HSV-1 in an amount of 1×10^1 to 1×10^6 pfu/kg body weight. For the control, normal mice were infected with HSV-1 under the same conditions. In addition, MCP-1 (50 ng/mouse) was administered subcutaneously to normal mice 2 hours before infection and 12 and 24 hours after infection. Anti-MCP-1 monoclonal antibody (10 μg/mouse) was administered subcutaneously to the burn mice 2 hours before infection and 12 and 24 hours after infection.

The test system of assay [4] is HIV. To be noted: reported in recent years; cited from earlier work.
For assay [5], the system named is HIV. Particulars: 150 to 225 mg (6 to 9 tablets) per day, asymptomatic carriers (AC); cited from earlier work.

Regarding `CC1(C)[C@@H](O[C@H]2O[C@H](C(=O)O)[C@@H](O)[C@H](O)[C@H]2O[C@@H]2O[C@H](C(=O)O)[C@@H](O)[C@H](O)[C@H]2O)CC[C@]2(C)[C@H]3C(=O)C=C4[C@@H]5C[C@@](C)(C(=O)O)CC[C@]5(C)CC[C@@]4(C)[C@]3(C)CC[C@@H]12.N` [glycyrrhizin, monoammonium glycyrrhizinate], in the assay on MCP-1 [1], the “production of MCP-1 induced by IL-10” value was “inhibiting the production of MCP-1 induced by IL-10”. The “production of MCP-1 by mononuclear cells from burn patients” value with MCP-1 [2] is on record as “effectively inhibited the production of MCP-1”. Further, in the assay on MCP-1 [3], the “production of MCP-1 by mononuclear cells from AIDS patients” value is listed as “production of MCP-1 was found to be inhibited”. Further, the “infection sensitivity to HSV-1 infection” value in the assay on HSV-1 (burn mice (third degree burns, 15% of body surface), HSV-1 intraperitoneal, FIG. 4) was “recover to the same level as normal mice”. The “intracellular growth of HIV” value with HIV [4] is listed as “inhibits the intracellular growth of HIV”. Also, the “survival without the onset of AIDS” value in the assay with HIV [5] is given as ≥ 10 years.
As for “MCP-1: monocyte chemoattractant protein-1, a CC chemokine composed of 76 amino acids”, the “infection sensitivity to HSV-1 infection” value in the assay on HSV-1 (normal mice dosed MCP-1 50 ng/mouse subcutaneously 2 hours before and 12 and 24 hours after infection) is given as 100 times higher as compared with.
